Patent US8518988B2, “Polymorph of the hydrochloride of the (4-hydroxycarbamoyl-phenyl)-carbamic acid (6-dimethylamino methyl-2-naphthalenyl) ester” (Chemi SPA, priority 2010, dated 2013)

Legend:
[1] = Comparative solubility in 0.9% sodium chloride solution (isotonic solution); assay type: physicochemical; conditions: 37° C.; for Solubility: 10 mg in 10 ml 0.9% sodium chloride solution, agitated 24 hours; for Relative solubility vs. form I: 0.9% sodium chloride solution, 24 hours
Procedure: As a matter of fact, a comparative experiment between form I of the compound (A) (monohydrate prepared as described in U.S. Pat. No. 7,329,689) and form II of compound (A), subject of the present invention, was carried out.
10 mg of compound (A) in crystalline form I were agitated in 10 ml of a 0.9% sodium chloride solution (isotonic solution) at 37° C. for 24 hours. The concentration of the product in liquid phase was measured at the end.
Table 1 indicates the obtained solubility data.

[2] = Stability test of crystalline form at 40° C., 75% humidity, analysed by PXRD; assay type: physicochemical; conditions: thin layer on Petri dish, samples after 2, 7 and 15 days
Procedure: FIG. 5 describes the profile of the stability diffractograms of ITF 2357 of form II at 40° C., 75% relative humidity at different times. In particular, the first diffractogram from the bottom is performed at time 0, the second diffractogram from the bottom is performed after 2 days, the third diffractogram from the bottom is performed after 7 days and the fourth diffractogram from the bottom is performed after 15 days.
In detail, a sample of form II of ITF 2357 was deposited in a thin layer having a thickness of about 0.5 cm on a Petri dish and placed in an environment with a constant humidity of 75%, at a constant temperature of 40° C. for two weeks. Samples were taken after 2, 7 and 15 days and analysed through Powder X Ray Diffraction (PXRD). The results of such experiments were summarised in FIG. 5, where the diffractograms obtained from the samples of the various collections were indicated overlapped.

Row | SMILES | Solubility [1] [µg/mL] | Relative solubility vs. form I [1] | Relative solubility vs. form I ([1]; listed as form II) | Stability of the crystalline form (PXRD) [2]
1 | CN(C)Cc1ccc2cc(OC(=O)Nc3ccc(C(=O)NO)cc3)ccc2c1.Cl [Form I, hydrochloride of the (4-hydroxycarbamoyl-phenyl)-carbamic acid (6-dimethylamino methyl-2-naphtalenyl) ester, reference compound] | 154 | 1.00 | – | –
2 | CN(C)Cc1ccc2cc(OC(=O)Nc3ccc(C(=O)NO)cc3)ccc2c1.Cl [Form II, hydrochloride of the (4-hydroxycarbamoyl-phenyl)-carbamic acid (6-dimethylamino methyl-2-naphtalenyl) ester] | 226 | 1.47 | 1.47 | no modifications of the crystalline form was observed
